According to ChEMBL document CHEMBL1146643, “Potential hypotensive agents: synthesis and hypotensive activity of oxime ethers derived from 1-naphthoxepines and related compounds” (2004):

Key:
Format in all cases: functional
Details in all cases: route intravenous
Felis catus [1] = experiment: Fall of blood pressure in anaesthetized cat at a dose of 5 mg/kg intravenously
Felis catus [2] = experiment: Percent of maximum effect in anaesthetized cat at a dose of 1 mg/kg intravenously
Felis catus [3] = experiment: Percent of maximum effect in anaesthetized cat at a dose of 5 mg/kg intravenously
Felis catus [4] = experiment: Fall of blood pressure in anaesthetized cat at a dose of 1 mg/kg intravenously

Structure (SMILES)	Decrease in blood pressure (Felis catus [1]) [mmHg]	Max effect (Felis catus [2]) [%]	Max effect (Felis catus [3]) [%]	Decrease in blood pressure (Felis catus [4]) [mmHg]
CC(C)NCC(O)CO/N=C1\CCCOc2ccc3ccccc3c21 (stereo not drawn)	80	7	70	10
CC(C)(C)NCC(O)CO/N=C1\CCCOc2ccc3ccccc3c21 (stereo not drawn)	50	21	41	18
CCCNCC(O)CO/N=C1\CCCOc2c1ccc1ccccc21 (stereo not drawn)	60	21	50	20
CCCNCC(O)CO/N=C1\CCCOc2ccc3ccccc3c21 (stereo not drawn)	16	17	17	18
CC(C)(C)NCC(O)CO/N=C1\CCCOc2c1ccc1ccccc21 (stereo not drawn)	80	40	55	60
CC(C)NCC(O)CO/N=C1\CCCOc2c1ccc1ccccc21 (stereo not drawn)	110	14	88	20
CC(C)NCC(O)COc1cccc2ccccc12 (stereo not drawn) [PROPRANOLOL]	50	35	41	46
